From patent US20120149715A1, “COMPOUNDS AND METHODS FOR THE TREATMENT OF VIRAL INFECTIONS” (priority 2010, published 2012)

System: A/Vietnam/1194/04 H5N1 virus
Set-up: species or system BALB/c mice
Conditions: mouse, in vivo

Nucleozin
animals that survived for more than 21 days: 90% | survival rate after inoculation compared with untreated controls (ip): significantly higher survival rate
